The test system of experiment [1] is T47D (PI3Kα-H1047R) cell line. As to the kind of experiment: HTRF phospho-AKT(S473) cell assay in T47D cells. It is filed as cell-based, human. To be noted: Homo sapiens; T47D (PI3Kα-H1047R) cells, HTRF phospho-AKT(S473), 2 hours compound incubation. Put shortly:
(§1)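 HTRF read-out of phospho-AKT(S473) in lysates gave IC50 values after 2 h compound exposure at 37° C. Dose series was 12 points at 1:3, topping at 5 μM for T47D and 10 μM for SKBR3. Only SKBR3 received 70 ng/ml PDGF-BB during the last 15 minutes.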
(In general: Time-resolved FRET reads energy transfer from a long-lived donor to a nearby acceptor.)

Experiment [2] deals with SKBR3 (PI3Kα-Wild Type) cell line. As to the kind of experiment: HTRF phospho-AKT(S473) cell assay in SKBR3 cells. The format is cell-based, human. To be noted: Homo sapiens, SK-BR-3; SKBR3 (PI3Kα-Wild Type) cells, HTRF phospho-AKT(S473), 2 hours compound incubation, PDGF-BB stimulated. Put shortly: as §1

Some results are limits rather than exact numbers.

As usually defined, the IC50 is the concentration needed to halve the response being measured. Higher therefore signals a need for much substance.

As to `Cc1cc([C@@H](C)Nc2ccc(Cl)nc2C(=O)NS(C)(=O)=O)c2nc(N3CCN(c4ccc(C#N)cn4)[C@@H](C)C3)n(C)c(=O)c2c1` [Compound 196, 6-chloro-3-(((R)-1-(2-((S)-4-(5-cyanopyridin-2-yl)-3-methylpiperazin-1-yl)-3,6-dimethyl-4-oxo-3,4-dihydroquinazolin-8-yl)ethyl)amino)-N-(methylsulfonyl) picolinamide], the figures for the IC50 in experiment [1] and in experiment [2] were under 250 nM and 1000 to 5000 nM, respectively.
In the case of `Cc1cc([C@@H](C)Nc2ccc(Cl)nc2C(=O)NS(C)(=O)=O)c2nc(N3CCC(n4cc(C)cn4)CC3)n(C)c(=O)c2c1` [Compound 197, (R)-6-chloro-3-((1-(3,6-dimethyl-2-(4-(4-methyl-1H-pyrazol-1-yl)piperidin-1-yl)-4-oxo-3,4-dihydroquinazolin-8-yl)ethyl)amino)-N-(methylsulfonyl) picolinamide], the IC50 is under 250 nM in experiment [1] and 1000 to 5000 nM in experiment [2].
The matching figures for `Cc1cc([C@@H](C)Nc2ccc(Cl)nc2C(=O)NS(C)(=O)=O)c2nc(N3CCC(n4cc5ccccc5n4)CC3)n(C)c(=O)c2c1` [Compound 198, (R)-3-((1-(2-(4-(2H-indazol-2-yl)piperidin-1-yl)-3,6-dimethyl-4-oxo-3,4-dihydroquinazolin-8-yl)ethyl)amino)-6-chloro-N-(methylsulfonyl) picolinamide]: under 250 nM and 1000 to 5000 nM.
The matching figures for `Cc1cc([C@@H](C)Nc2ccc(Cl)nc2C(=O)NS(C)(=O)=O)c2nc(N3CCC(n4cccn4)CC3)n(C)c(=O)c2c1` [Compound 199, (R)-3-((1-(2-(4-(1H-pyrazol-1-yl)piperidin-1-yl)-3,6-dimethyl-4-oxo-3,4-dihydroquinazolin-8-yl)ethyl)amino)-6-chloro-N-(methylsulfonyl) picolinamide]: under 250 nM and 1000 to 5000 nM.
The matching figures for `Cc1cc([C@@H](C)Nc2ccc(Cl)nc2C(=O)NS(C)(=O)=O)c2nc(N3CCN(c4ccc(C#N)cn4)[C@H](C)C3)n(C)c(=O)c2c1` [Compound 200, 6-chloro-3-(((R)-1-(2-((R)-4-(5-cyanopyridin-2-yl)-3-methylpiperazin-1-yl)-3,6-dimethyl-4-oxo-3,4-dihydroquinazolin-8-yl)ethyl)amino)-N-(methylsulfonyl) picolinamide]: under 250 nM and 1000 to 5000 nM.
`Cc1cc([C@@H](C)Nc2ccc(Cl)nc2C(=O)NS(C)(=O)=O)c2nc(N3C[C@@H]4C[C@H]3CN4c3cnn(C)c3)n(C)c(=O)c2c1` [Compound 201, 6-chloro-3-(((R)-1-(3,6-dimethyl-2-((1S,4S)-5-(1-methyl-1H-pyrazol-4-yl)-2,5-diazabicyclo[2.2.1]heptan-2-yl)-4-oxo-3,4-dihydroquinazolin-8-yl)ethyl)amino)-N-(methylsulfonyl) picolinamide]: the IC50 was under 250 nM in experiment [1] and 1000 to 5000 nM in experiment [2].
Take `Cc1cc([C@@H](C)Nc2ccc(Cl)nc2C(=O)NS(C)(=O)=O)c2nc(N3CC[C@@H](Oc4ccc(F)cc4)C3)n(C)c(=O)c2c1` [Compound 203, 6-chloro-3-(((R)-1-(2-((R)-3-(4-fluorophenoxy)pyrrolidin-1-yl)-3,6-dimethyl-4-oxo-3,4-dihydroquinazolin-8-yl)ethyl)amino)-N-(methylsulfonyl) picolinamide]: the IC50 in experiment [1] is under 250 nM; in experiment [2], 1000 to 5000 nM.
Consider `Cc1cc([C@@H](C)Nc2ccc(Cl)nc2C(=O)NS(C)(=O)=O)c2nc(N3CCN(c4cc[nH]n4)CC3)n(C)c(=O)c2c1` [Compound 204, (R)-3-((1-(2-(4-(1H-pyrazol-3-yl)piperazin-1-yl)-3,6-dimethyl-4-oxo-3,4-dihydroquinazolin-8-yl)ethyl)amino)-6-chloro-N-(methylsulfonyl) picolinamide], for which the IC50 in experiment [1] was under 250 nM; in experiment [2], 1000 to 5000 nM.
On to `Cc1cc([C@@H](C)Nc2ccc(Cl)nc2C(=O)NS(C)(=O)=O)c2nc(N3CCN(c4ccc(CC#N)cn4)CC3)n(C)c(=O)c2c1` [Compound 206, (R)-6-chloro-3-((1-(2-(4-(5-(cyanomethyl)pyridin-2-yl)piperazin-1-yl)-3,6-dimethyl-4-oxo-3,4-dihydroquinazolin-8-yl)ethyl)amino)-N-(methylsulfonyl) picolinamide], for which the IC50 in experiment [1] is under 250 nM; in experiment [2], 1000 to 5000 nM.
Taken in the same sequence, the figures for `Cc1cc([C@@H](C)Nc2ccc(Cl)nc2C(=O)NS(C)(=O)=O)c2nc(N3CCC[C@H](C#N)C3)n(C)c(=O)c2c1` [Compound 209, 6-chloro-3-(((R)-1-(2-((S)-3-cyanopiperidin-1-yl)-3,6-dimethyl-4-oxo-3,4-dihydroquinazolin-8-yl)ethyl)amino)-N-(methylsulfonyl) picolinamide] were under 250 nM and 1000 to 5000 nM.
As to `Cc1cc([C@@H](C)Nc2ccc(Cl)nc2C(=O)NS(C)(=O)=O)c2nc(N3Cc4cn(C(F)(F)F)nc4C3)n(C)c(=O)c2c1` [Compound 210, (R)-6-chloro-3-((1-(3,6-dimethyl-4-oxo-2-(2-(trifluoromethyl)-2,6-dihydropyrrolo[3,4-c]pyrazol-5(4H)-yl)-3,4-dihydroquinazolin-8-yl)ethyl)amino)-N-(methylsulfonyl) picolinamide], the IC50 is under 250 nM in experiment [1] and 1000 to 5000 nM in experiment [2].
In the case of `Cc1cc([C@@H](C)Nc2ccc(Cl)nc2C(=O)NS(C)(=O)=O)c2nc(N3CCc4cn(CC(F)(F)F)nc4C3)n(C)c(=O)c2c1` [Compound 214, (R)-6-chloro-3-((1-(3,6-dimethyl-4-oxo-2-(2-(2,2,2-trifluoroethyl)-2,4,5,7-tetrahydro-6H-pyrazolo[3,4-c]pyridin-6-yl)-3,4-dihydroquinazolin-8-yl)ethyl)amino)-N-(methylsulfonyl) picolinamide], the IC50 in experiment [1] is under 250 nM; in experiment [2] it was 1000 to 5000 nM.
As to `Cc1cc([C@@H](C)Nc2ccc(Cl)nc2C(=O)NS(C)(=O)=O)c2nc(N3Cc4cn(CC(C)(C)O)nc4C3)n(C)c(=O)c2c1` [Compound 216, (R)-6-chloro-3-((1-(2-(2-(2-hydroxy-2-methylpropyl)-2,6-dihydropyrrolo[3,4-c]pyrazol-5(4H)-yl)-3,6-dimethyl-4-oxo-3,4-dihydroquinazolin-8-yl)ethyl)amino)-N-(methylsulfonyl) picolinamide], the values for the IC50 in experiment [1] and in experiment [2] were under 250 nM and 1000 to 5000 nM, respectively.
Turning to `Cc1cc([C@@H](C)Nc2ccc(Cl)nc2C(=O)NS(C)(=O)=O)c2nc(N3Cc4cn(-c5ccc(C)nc5)nc4C3)n(C)c(=O)c2c1` [Compound 217, (R)-6-chloro-3-((1-(3,6-dimethyl-2-(2-(6-methylpyridin-3-yl)-2,6-dihydropyrrolo[3,4-c]pyrazol-5(4H)-yl)-4-oxo-3,4-dihydroquinazolin-8-yl)ethyl)amino)-N-(methylsulfonyl) picolinamide], the IC50 in experiment [1] was under 250 nM; in experiment [2] it was 1000 to 5000 nM.
Consider `Cc1cc([C@@H](C)Nc2ccc(Cl)nc2C(=O)NS(C)(=O)=O)c2nc(N3Cc4cn(-c5ccc(C#N)cn5)nc4C3)n(C)c(=O)c2c1` [Compound 219, (R)-6-chloro-3-((1-(2-(2-(5-cyanopyridin-2-yl)-2,6-dihydropyrrolo[3,4-c]pyrazol-5(4H)-yl)-3,6-dimethyl-4-oxo-3,4-dihydroquinazolin-8-yl)ethyl)amino)-N-(methylsulfonyl) picolinamide], for which the IC50 in experiment [1] is under 250 nM; in experiment [2], 1000 to 5000 nM.
Taken in the same sequence, the figures for `Cc1cc([C@@H](C)Nc2ccc(Cl)nc2C(=O)NS(C)(=O)=O)c2nc(N3CCc4nn(CC(F)(F)F)cc4C3)n(C)c(=O)c2c1` [Compound 220, (R)-6-chloro-3-((1-(3,6-dimethyl-4-oxo-2-(2-(2,2,2-trifluoroethyl)-2,4,6,7-tetrahydro-5H-pyrazolo[4,3-c]pyridin-5-yl)-3,4-dihydroquinazolin-8-yl)ethyl)amino)-N-(methylsulfonyl) picolinamide] were under 250 nM and 1000 to 5000 nM.
The matching figures for `Cc1cc([C@@H](C)Nc2ccc(Cl)nc2C(=O)NS(C)(=O)=O)c2nc(N3CCc4c(cnn4CC(F)(F)F)C3)n(C)c(=O)c2c1` [Compound 221, (R)-6-chloro-3-((1-(3,6-dimethyl-4-oxo-2-(1-(2,2,2-trifluoroethyl)-1,4,6,7-tetrahydro-5H-pyrazolo[4,3-c]pyridin-5-yl)-3,4-dihydroquinazolin-8-yl)ethyl)amino)-N-(methylsulfonyl) picolinamide]: under 250 nM and 1000 to 5000 nM.
As for `Cc1cc([C@@H](C)Nc2ccc(Cl)nc2C(=O)NS(C)(=O)=O)c2nc(C3CCN(c4ccn(C)n4)CC3)n(C)c(=O)c2c1` [Compound 223, (R)-6-chloro-3-((1-(3,6-dimethyl-2-(1-(1-methyl-1H-pyrazol-3-yl)piperidin-4-yl)-4-oxo-3,4-dihydroquinazolin-8-yl)ethyl)amino)-N-(methylsulfonyl) picolinamide], the IC50 was under 250 nM in experiment [1] and 1000 to 5000 nM in experiment [2].
With `Cc1cc([C@@H](C)Nc2ccc(Cl)nc2C(=O)NS(C)(=O)=O)c2nc(N3Cc4cc(F)cnc4C3)n(C)c(=O)c2c1` [Compound 225, (R)-6-chloro-3-((1-(2-(3-fluoro-5,7-dihydro-6H-pyrrolo[3,4-b]pyridin-6-yl)-3,6-dimethyl-4-oxo-3,4-dihydroquinazolin-8-yl)ethyl)amino)-N-(methylsulfonyl) picolinamide], the IC50 was under 250 nM in experiment [1] and 1000 to 5000 nM in experiment [2].
With `Cc1cc([C@@H](C)Nc2ccc(Cl)nc2C(=O)NS(C)(=O)=O)c2nc(N3CCC(c4c(C)nn(C)c4C)CC3)n(C)c(=O)c2c1` [Compound 226, (R)-6-chloro-3-((1-(3,6-dimethyl-4-oxo-2-(4-(1,3,5-trimethyl-1H-pyrazol-4-yl)piperidin-1-yl)-3,4-dihydroquinazolin-8-yl)ethyl)amino)-N-(methylsulfonyl) picolinamide], the IC50 is under 250 nM in experiment [1] and 1000 to 5000 nM in experiment [2].

The values are drawn from patent US12281122B1, “PI3K inhibitors” (Cogent Biosciences, Inc., priority 2023, dated 2025).
